# Columns and labels:
# HCV 1a genotype replicon = test: HCV replicon assay, qRT-PCR, genotype 1a (Huh-1a7 replicon cell line); assay type: cell-based, HCV (strain H77; conditions: Hepatitis C virus; Genotype-1a replicon, HCV RNA by qRT-PCR normalized to GAPDH RNA
# Excerpt: (§1) HCV replicon cell lines (kindly provided by R. Bartenschlager) isolated from colonies as described by Lohman et al. (Lohman et al. (1999) Science 285: 110-113, expressly incorporated by reference in its entirety) and used for all experiments. One of the HCV replicon cell lines (strain Conl, genotype 1b) has the nucleic acid sequence set forth in EMBL Accession No.: AJ242651, the coding sequence of which is from nucleotides 1801 to 8406. Another replicon cell line (strain H77, genotype 1a) was constructed as described by Yi et. al. (Yi et. al. (2004) Journal of Virology 78(15):7904-15). The coding sequences of the published HCV replicons were synthesized and subsequently assembled in plasmids using standard molecular biology techniques.
# (§2) One replicon cell line (“SGR 11-7”) stably expresses HCV replicon RNA, genotype 1b, which consists of (i) the HCV 5′UTR fused to the first 12 amino acids of the capsid protein, (ii) the neomycin phosphotransferase gene (neo), (iii) the IRES from encephalomyocarditis virus (EMCV) and (iv) HCV […] to NS5B genes and the HCV 3′UTR. Another replicon cell line (“Huh-1a7”) described by Yi et. al. (Yi et. al. (2004) Journal of Virology 78(15):7904-15, expressly incorporated by reference in its entirety) stably expresses HCV replicon RNA, genotype 1a, which consists of (i) the HCV 5′UTR fused to the first 12 amino acids of the capsid protein, (ii) the HIV tat protein, (iii) the neomycin phosphotransferase gene (neo), (iv) the IRES from encephalomyocarditis virus (EMCV) and (vi) HCV NS3 to NS5B genes that harbor cell culture adaptive mutations (Q1067R, K1691R, S2204I) and the HCV 3′UTR.
# (§3) These cell lines are maintained at 37° C., 5% CO2, 100% relative humidity in DMEM (Cat#11965-084, Invitrogen), with 10% fetal calf serum (“FCS”, Invitrogen), 1% non-essential amino acids (Invitrogen), 1% of Glutamax (Invitrogen), 1% of 100× penicillin/streptomycin (Cat#15140-122, Invitrogen) and Geneticin (Cat#10131-027, Invitrogen) at 0.75 mg/ml or 0.25 mg/ml for 11-7 and Huh-1a7 cells, respectively.
# (§4) EC50 values of single agent compounds were determined by HCV RNA detection using quantitative RT-PCR, according to the manufacturer's instructions, with a TAQMAN® One-Step RT-PCR Master Mix Reagents Kit (Cat#AB 4309169, Applied Biosystems) on an ABI Model 7500 thermocycler. EC50 values of combinations are similarly determined by HCV RNA detection using quantitative RT-PCR. The TAQMAN primers to use for detecting and quantifying HCV RNA obtained from Integrated DNA Technologies. HCV RNA is normalized to GAPDH RNA levels in drug-treated cells, which is detected and quantified using the Human GAPDH Endogenous Control Mix (Applied Biosystems, AB 4310884E). Total cellular RNA is purified from 96-well plates using the RNAqueous 96 kit (Ambion, Cat#AM1812). Chemical agent cytotoxicity is evaluated using an MTS assay according to the manufacturer's directions (Promega).
# (§5) The compounds of the present invention can be effective against the HCV 1a and 1b genotypes. It should also be understood that the compounds of the present invention can inhibit multiple genotypes of HCV. In one embodiment, compounds of the present invention are active against the 1a, 1b, 2a, 2b, 3a, 4a, and 5a genotypes. […] EC50 ranges against HCV 1a or 1b are as follows: A>1 μM; B 0.1-1 μM; C<0.1 μM.
# HCV 1b genotype replicon = test: HCV replicon assay, qRT-PCR, genotype 1b (SGR 11-7 replicon cell line); assay type: cell-based, HCV (strain Conl; conditions: Hepatitis C virus; Genotype-1b replicon, HCV RNA by qRT-PCR normalized to GAPDH RNA
# Excerpt: as §1, §2, §3, §4, §5
SMILES,EC50 (HCV 1a genotype replicon) [nM],EC50 (HCV 1b genotype replicon) [nM]
O=c1ccn([C@@H]2O[C@H](CO)C(O)C2(O)C#CCl)c(=O)[nH]1 (some centres unmarked) [Example 1],> 1000,> 1000
COC(=O)[C@H](C)NP(=O)(OC[C@H]1O[C@@H](n2ccc(=O)[nH]c2=O)[C@@](O)(C#CCl)C1O)Oc1cccc2ccccc12 (some centres unmarked) [Example 2],100 to 1000,100 to 1000
C[C@H](N[P@@](=O)(OC[C@H]1O[C@@H](n2ccc(=O)[nH]c2=O)[C@@](O)(C#CCl)C1O)Oc1cccc2ccccc12)C(=O)OCC(C)(C)C (some centres unmarked) [Example 3],100 to 1000,100 to 1000
C[C@H](N[P@](=O)(OC[C@H]1O[C@@H](n2ccc(=O)[nH]c2=O)[C@@](O)(C#CCl)C1O)Oc1cccc2ccccc12)C(=O)OCC(C)(C)C (some centres unmarked) [Example 4],< 100,< 100
CCCCOC(=O)[C@H](C)NP(=O)(OC[C@H]1O[C@@H](n2ccc(=O)[nH]c2=O)[C@@](O)(C#CCl)C1O)Oc1cccc2ccccc12 (some centres unmarked) [Example 5],100 to 1000,100 to 1000
C[C@H](NP(=O)(OC[C@H]1O[C@@H](n2ccc(=O)[nH]c2=O)[C@@](O)(C#CCl)C1O)Oc1cccc2ccccc12)C(=O)OCc1ccccc1 (some centres unmarked) [Example 6],100 to 1000,100 to 1000
CCCCCOC(=O)[C@H](C)NP(=O)(OC[C@H]1O[C@@H](n2ccc(=O)[nH]c2=O)[C@@](O)(C#CCl)C1O)Oc1cccc2ccccc12 (some centres unmarked) [Example 7],100 to 1000,100 to 1000
CC(C)OC(=O)[C@H](C)NP(=O)(OC[C@H]1O[C@@H](n2ccc(=O)[nH]c2=O)[C@@](O)(C#CCl)C1O)Oc1cccc2ccccc12 (some centres unmarked) [Example 8],100 to 1000,> 1000
C[C@H](NP(=O)(OC[C@H]1O[C@@H](n2ccc(=O)[nH]c2=O)[C@@](O)(C#CCl)C1O)Oc1cccc2ccccc12)C(=O)OC1CCCC1 (some centres unmarked) [Example 9],100 to 1000,100 to 1000
C[C@H](NP(=O)(OC[C@H]1O[C@@H](n2ccc(=O)[nH]c2=O)C(O)(C#CCl)C1O)Oc1cccc2ccccc12)C(=O)OC1CCCCC1 (some centres unmarked) [Example 10],> 1000,> 1000

# Source: patent US8575119B2, “2′-chloroacetylenyl substituted nucleoside derivatives” (Enanta Pharmaceuticals, Inc., priority 2011, dated 2013)
